For experiment [1], the target named is Receptor tyrosine-protein kinase erbB-4 (Homo sapiens) (UniProt Q15303). Kind of experiment: Inhibition of ERBB4 (unknown origin) at 10 uM after 120 mins P33 radiolabeled kinase activity assay.
The target in experiment [2] is T1, Serine/threonine-protein kinase PLK4 (Homo sapiens) (UniProt O00444).
T1 sequence (whole entry): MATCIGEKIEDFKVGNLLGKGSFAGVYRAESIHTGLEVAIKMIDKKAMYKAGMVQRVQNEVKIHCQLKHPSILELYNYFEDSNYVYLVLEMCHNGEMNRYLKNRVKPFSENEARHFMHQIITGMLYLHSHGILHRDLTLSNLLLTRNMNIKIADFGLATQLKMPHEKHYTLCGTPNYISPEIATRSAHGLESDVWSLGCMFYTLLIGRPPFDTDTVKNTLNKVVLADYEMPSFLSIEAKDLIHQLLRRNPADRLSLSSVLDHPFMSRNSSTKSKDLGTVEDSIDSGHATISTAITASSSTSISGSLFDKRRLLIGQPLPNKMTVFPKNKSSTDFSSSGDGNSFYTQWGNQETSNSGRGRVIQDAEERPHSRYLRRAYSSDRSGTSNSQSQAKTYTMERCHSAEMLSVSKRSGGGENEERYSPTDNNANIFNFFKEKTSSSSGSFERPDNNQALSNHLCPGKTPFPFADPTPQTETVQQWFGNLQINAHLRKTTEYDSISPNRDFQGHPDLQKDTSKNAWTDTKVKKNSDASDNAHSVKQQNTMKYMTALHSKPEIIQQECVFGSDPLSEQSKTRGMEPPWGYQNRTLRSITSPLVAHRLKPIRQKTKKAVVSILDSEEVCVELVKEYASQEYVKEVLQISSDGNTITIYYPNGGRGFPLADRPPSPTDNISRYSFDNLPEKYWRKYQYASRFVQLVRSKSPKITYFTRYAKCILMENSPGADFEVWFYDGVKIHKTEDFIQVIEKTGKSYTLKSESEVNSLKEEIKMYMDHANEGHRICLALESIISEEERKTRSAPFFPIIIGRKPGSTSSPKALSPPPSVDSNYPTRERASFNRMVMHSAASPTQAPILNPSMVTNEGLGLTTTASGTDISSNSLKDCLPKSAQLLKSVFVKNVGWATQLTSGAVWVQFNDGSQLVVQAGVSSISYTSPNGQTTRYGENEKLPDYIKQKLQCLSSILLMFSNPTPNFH
Kind of experiment: Inhibition of PLK4 (unknown origin) at 10 uM after 120 mins P33 radiolabeled kinase activity assay.

Experiment [3] deals with Ribosomal protein S6 kinase beta-2 (Homo sapiens) (UniProt Q9UBS0). Kind of experiment: Inhibition of RPS6KB2 (unknown origin) at 10 uM after 120 mins P33 radiolabeled kinase activity assay.
Ribosomal protein S6 kinase beta-2 (Homo sapiens), sequence (Q9UBS0 whole entry): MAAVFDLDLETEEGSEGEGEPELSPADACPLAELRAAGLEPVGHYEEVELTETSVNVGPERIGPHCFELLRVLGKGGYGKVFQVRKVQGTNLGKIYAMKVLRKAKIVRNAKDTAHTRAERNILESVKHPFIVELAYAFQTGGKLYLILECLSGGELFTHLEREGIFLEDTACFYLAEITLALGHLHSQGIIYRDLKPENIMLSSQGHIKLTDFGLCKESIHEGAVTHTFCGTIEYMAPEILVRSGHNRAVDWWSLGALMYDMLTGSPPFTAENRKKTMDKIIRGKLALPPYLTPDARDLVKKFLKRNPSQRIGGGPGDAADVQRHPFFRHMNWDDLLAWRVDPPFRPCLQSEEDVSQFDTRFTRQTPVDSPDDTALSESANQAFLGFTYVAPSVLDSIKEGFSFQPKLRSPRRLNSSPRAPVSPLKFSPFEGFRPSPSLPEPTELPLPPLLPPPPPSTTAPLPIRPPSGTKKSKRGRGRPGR
Experiment [4] addresses T2, Mitogen-activated protein kinase kinase kinase 6 (Homo sapiens) (UniProt O95382).
T2 sequence (whole entry): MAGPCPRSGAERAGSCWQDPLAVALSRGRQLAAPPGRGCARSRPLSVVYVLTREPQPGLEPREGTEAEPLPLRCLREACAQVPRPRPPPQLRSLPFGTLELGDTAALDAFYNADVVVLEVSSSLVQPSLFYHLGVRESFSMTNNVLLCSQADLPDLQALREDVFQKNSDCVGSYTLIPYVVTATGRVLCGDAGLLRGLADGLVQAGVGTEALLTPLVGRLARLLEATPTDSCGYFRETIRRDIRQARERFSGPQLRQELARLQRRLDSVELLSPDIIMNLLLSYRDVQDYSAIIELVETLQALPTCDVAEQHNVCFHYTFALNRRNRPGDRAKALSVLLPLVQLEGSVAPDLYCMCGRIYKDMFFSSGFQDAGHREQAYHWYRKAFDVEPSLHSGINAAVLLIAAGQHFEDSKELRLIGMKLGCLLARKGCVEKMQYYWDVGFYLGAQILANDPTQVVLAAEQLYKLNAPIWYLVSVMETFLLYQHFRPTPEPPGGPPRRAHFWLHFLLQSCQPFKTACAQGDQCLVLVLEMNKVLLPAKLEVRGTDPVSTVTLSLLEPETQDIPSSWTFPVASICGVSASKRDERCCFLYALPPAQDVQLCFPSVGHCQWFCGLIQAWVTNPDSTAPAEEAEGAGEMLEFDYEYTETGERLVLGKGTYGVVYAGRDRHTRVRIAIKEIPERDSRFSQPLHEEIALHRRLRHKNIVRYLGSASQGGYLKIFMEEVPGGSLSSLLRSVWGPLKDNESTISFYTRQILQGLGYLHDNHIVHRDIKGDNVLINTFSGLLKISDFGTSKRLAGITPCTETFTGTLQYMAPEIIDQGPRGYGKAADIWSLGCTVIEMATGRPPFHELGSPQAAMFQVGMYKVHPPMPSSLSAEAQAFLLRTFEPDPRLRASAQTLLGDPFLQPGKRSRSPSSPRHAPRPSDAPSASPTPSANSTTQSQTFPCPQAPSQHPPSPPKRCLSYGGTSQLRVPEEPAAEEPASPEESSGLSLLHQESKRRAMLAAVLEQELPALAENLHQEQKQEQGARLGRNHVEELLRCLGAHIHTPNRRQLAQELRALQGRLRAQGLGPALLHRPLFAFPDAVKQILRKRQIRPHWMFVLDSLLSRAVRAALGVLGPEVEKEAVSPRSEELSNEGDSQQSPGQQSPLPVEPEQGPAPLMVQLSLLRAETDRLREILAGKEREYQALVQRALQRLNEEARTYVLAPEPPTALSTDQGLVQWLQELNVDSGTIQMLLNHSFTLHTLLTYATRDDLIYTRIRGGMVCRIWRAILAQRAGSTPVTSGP
Kind of experiment: Inhibition of MEKK6 (unknown origin) at 10 uM after 120 mins P33 radiolabeled kinase activity assay.

The target of experiment [5] is Tyrosine-protein kinase JAK1 (Homo sapiens) (UniProt P23458). Kind of experiment: Inhibition of JAK1 (unknown origin) at 10 uM after 120 mins P33 radiolabeled kinase activity assay.
Tyrosine-protein kinase JAK1 (Homo sapiens), sequence (P23458 whole entry): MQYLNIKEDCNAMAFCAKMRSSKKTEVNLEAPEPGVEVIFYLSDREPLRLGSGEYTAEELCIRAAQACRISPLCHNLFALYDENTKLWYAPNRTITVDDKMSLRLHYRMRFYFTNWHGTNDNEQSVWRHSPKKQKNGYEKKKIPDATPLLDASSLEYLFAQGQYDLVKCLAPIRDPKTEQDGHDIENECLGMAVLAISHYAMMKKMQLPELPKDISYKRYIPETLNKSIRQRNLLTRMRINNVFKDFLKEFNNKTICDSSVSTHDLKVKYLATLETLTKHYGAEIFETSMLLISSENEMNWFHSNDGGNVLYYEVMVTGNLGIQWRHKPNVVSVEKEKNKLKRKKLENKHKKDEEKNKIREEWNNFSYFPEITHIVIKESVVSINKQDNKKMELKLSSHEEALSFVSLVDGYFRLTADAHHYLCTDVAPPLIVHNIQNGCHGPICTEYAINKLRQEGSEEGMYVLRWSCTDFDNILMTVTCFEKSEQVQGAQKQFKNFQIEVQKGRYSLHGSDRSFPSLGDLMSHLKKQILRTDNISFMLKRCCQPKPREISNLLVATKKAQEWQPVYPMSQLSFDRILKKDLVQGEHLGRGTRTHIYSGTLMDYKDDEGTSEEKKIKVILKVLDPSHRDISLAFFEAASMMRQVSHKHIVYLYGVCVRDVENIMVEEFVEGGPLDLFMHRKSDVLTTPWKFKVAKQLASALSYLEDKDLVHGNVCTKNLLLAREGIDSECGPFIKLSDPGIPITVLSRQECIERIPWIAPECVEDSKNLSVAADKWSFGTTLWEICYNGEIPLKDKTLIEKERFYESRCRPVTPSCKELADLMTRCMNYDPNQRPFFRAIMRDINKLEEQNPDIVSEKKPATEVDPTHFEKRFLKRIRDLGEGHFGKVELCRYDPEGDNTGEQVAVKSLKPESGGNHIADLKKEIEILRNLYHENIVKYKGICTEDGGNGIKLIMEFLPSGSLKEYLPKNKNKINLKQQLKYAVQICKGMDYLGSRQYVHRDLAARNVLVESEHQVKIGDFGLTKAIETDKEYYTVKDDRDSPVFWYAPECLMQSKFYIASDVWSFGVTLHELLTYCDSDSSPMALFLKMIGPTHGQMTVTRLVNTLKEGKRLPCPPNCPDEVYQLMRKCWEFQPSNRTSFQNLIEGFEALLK

Receptor tyrosine-protein kinase erbB-4 (Homo sapiens), sequence (Q15303 whole entry): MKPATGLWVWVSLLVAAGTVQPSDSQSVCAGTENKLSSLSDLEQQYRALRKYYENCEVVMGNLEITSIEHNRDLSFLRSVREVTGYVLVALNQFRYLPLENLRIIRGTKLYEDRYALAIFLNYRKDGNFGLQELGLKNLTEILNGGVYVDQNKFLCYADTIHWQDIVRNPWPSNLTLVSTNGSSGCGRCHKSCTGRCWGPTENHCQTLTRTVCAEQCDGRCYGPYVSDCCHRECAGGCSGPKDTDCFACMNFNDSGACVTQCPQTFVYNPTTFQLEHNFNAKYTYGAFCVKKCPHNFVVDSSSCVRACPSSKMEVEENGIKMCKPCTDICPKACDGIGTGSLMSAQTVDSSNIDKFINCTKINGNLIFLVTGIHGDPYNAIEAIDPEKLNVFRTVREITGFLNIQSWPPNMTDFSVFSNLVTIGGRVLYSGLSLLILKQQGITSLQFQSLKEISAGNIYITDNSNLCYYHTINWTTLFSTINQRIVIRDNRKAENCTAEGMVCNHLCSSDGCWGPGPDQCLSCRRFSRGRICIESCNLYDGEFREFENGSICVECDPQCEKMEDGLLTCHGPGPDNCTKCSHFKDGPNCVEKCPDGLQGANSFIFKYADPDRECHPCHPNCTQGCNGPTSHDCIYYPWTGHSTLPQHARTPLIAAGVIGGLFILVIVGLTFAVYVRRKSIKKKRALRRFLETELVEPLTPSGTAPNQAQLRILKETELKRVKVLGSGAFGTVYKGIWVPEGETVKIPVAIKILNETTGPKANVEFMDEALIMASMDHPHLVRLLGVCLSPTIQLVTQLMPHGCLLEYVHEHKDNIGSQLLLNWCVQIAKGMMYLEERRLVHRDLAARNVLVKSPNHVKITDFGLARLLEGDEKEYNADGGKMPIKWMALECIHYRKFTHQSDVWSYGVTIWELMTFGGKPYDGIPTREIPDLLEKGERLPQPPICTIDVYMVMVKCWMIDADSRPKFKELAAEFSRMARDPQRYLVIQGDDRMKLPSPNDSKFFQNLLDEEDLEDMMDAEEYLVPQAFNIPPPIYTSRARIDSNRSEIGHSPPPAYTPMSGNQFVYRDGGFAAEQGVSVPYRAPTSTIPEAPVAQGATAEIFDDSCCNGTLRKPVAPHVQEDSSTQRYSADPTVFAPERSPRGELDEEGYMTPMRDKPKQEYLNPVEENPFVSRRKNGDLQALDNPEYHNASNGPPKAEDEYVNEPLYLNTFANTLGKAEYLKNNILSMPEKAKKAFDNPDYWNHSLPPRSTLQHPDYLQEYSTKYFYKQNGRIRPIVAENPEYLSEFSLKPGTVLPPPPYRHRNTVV

In the case of `CS(=O)(=O)c1cccc(Nc2nccc(-c3sc(N4CCOCC4)nc3-c3cccc(NS(=O)(=O)c4c(F)cccc4F)c3)n2)c1`, the inhibition in experiment [1] was 98.5%; in experiment [2] it was 97%; in experiment [3] it was 11.1%; in experiment [4] it was -4.09%; in experiment [5], -2.11%.
Taken in the same sequence, the figures for `CC(C)(C)c1cc(NC(=O)Nc2ccc(Oc3ccncc3)cc2)no1` were -3.92%, 19.3%, 52.2%, 4.35% and -3.4%.
Regarding `COCCNC(=O)c1ccc2c(c1)nc(-c1cnc(-c3ccc(Cl)cc3)[nH]1)n2CCOC`, the inhibition is 1.69% in experiment [1]; 17.3% in experiment [2]; 6.27% in experiment [3]; -0.42% in experiment [4]; 5.2% in experiment [5].

For the origin of these results see ChEMBL document CHEMBL3627608, “Crystal structures of human RIP2 kinase catalytic domain complexed with ATP-competitive inhibitors: Foundations for understanding inhibitor selectivity” (Bioorg Med Chem, 2015).
